Reference: ChEMBL document CHEMBL1121919, “13N-labeled L-amino acids for in vivo assessment of local myocardial metabolism” (J Med Chem, 1981)
Values belong to the compound of their own block, whether it stands above or below them.

How the values were obtained:
Canis familiaris [1] = organism: Canis familiaris; assay: Ischemic myocardial half-life measured after intracoronary injection of [13N]-labeled amino acid in dogs (control - 88+/-2); type: ADME, organism-based, Canis lupus familiaris, Myocardium; settings: dog, in vivo, other
Canis familiaris [2] = organism: Canis familiaris; assay: Ischemic myocardial residue fraction of [13N]-labeled amino acid was observed with a single pass uptake technique in open-chest instrumented dogs (control - 18.5+/-2.1); type: functional, Canis lupus familiaris
Canis familiaris [3] = organism: Canis familiaris; assay: Ischemic myocardial half-life measured after intracoronary injection of [13N]-labeled amino acid in dogs (control - 114.1+/-26.5); type: ADME, organism-based, Canis lupus familiaris, Myocardium; settings: dog, in vivo, other
Canis familiaris [4] = organism: Canis familiaris; assay: Ischemic myocardial residue fraction of [13N]-labeled amino acid was observed with a single pass uptake technique in open-chest instrumented dogs (control - 8.1+/-3.1); type: functional, Canis lupus familiaris
Canis familiaris [5] = organism: Canis familiaris; assay: Ischemic myocardial residue fraction of [13N]-labeled amino acid was observed with a single pass uptake technique in open-chest instrumented dogs (control - 14+/-4.2); type: functional, Canis lupus familiaris
Canis familiaris [6] = organism: Canis familiaris; assay: Ischemic myocardial half-life measured after intracoronary injection of [13N]-labeled amino acid in dogs (control - 147+/-12); type: ADME, organism-based, Canis lupus familiaris; settings: dog, in vivo, other
Canis familiaris [7] = organism: Canis familiaris; assay: Ischemic myocardial half-life measured after intracoronary injection of [13N]-labeled amino acid in dogs (control - 15.9+/-0.2); type: ADME, organism-based, Canis lupus familiaris, Myocardium; settings: dog, in vivo, other
Canis familiaris [8] = organism: Canis familiaris; assay: Ischemic myocardial residue fraction of [13N]-labeled amino acid was observed with a single pass uptake technique in open-chest instrumented dogs (control - 17.3+/-6.1); type: functional, Canis lupus familiaris

T1/2 (Canis familiaris [1]): 77.5 min
SMILES: C[C@H](N)C(=O)O [ALANINE]
Residue fraction (Canis familiaris [2]): 19.5%

T1/2 (Canis familiaris [3]): 81.2 min
SMILES: N[C@@H](CCC(=O)O)C(=O)O [GLUTAMIC ACID]
Residue fraction (Canis familiaris [4]): 11.5%

T1/2 (Canis familiaris [6]): 172 min
SMILES: N[C@@H](CC(=O)O)C(=O)O [ASPARTIC ACID]
Residue fraction (Canis familiaris [5]): 17%

SMILES: NC(=O)CC[C@H](N)C(=O)O [GLUTAMINE]
T1/2 (Canis familiaris [7]): 17.5 min | Residue fraction (Canis familiaris [8]): 20.5%
